Reference: patent publication US6599927B2, “Use of an H+, K+-ATPase inhibitor in the treatment of Widal's Syndrome” (AstraZeneca AB, priority 1996, dated 2003)
Entries after “also recorded” stand apart in the source; their conditions may differ.

System: nasal polyps
Experiment: Two week treatment of nine patients with omeprazole, intranasal budesonide and oral deflazacort (Examples 2 to 10)
Assay type: in vivo, human
Details: two weeks, 20 mg omeprazole, 100 μg intranasal budesonide, 3 to 15 mg oral deflazacort
Procedure: Nine patients, each with the conditions shown in the following Table 1, were treated during a two week period. The treatment consisted of 20 mg of omeprazole, 100 μg of intranasal budesonide and 3 to 15 mg of oral deflazacort (deflazacort was used in such a small quantity to ensure the patients' compliance).

COc1ccc2[nH]c([S+]([O-])Cc3ncc(C)c(OC)c3C)nc2c1 (stereo not drawn) [omeprazole]
Result (patient with Nasal Polyposis and aspirin intolerance (Example 9)): Positive effect
Result (patients with Nasal Polyposis (Examples 5-8)): Positive effect; also recorded: Long term benefit
Result (patients with Widal's Syndrome (Examples 2-4)): Temporary benefit; also recorded: Positive effect
